Experimental findings from article PMC13147323, “EGFR-Targeted and MMP-Activated Membranolytic Peptides Kill Cancer Cells Specifically In Vitro and Reduce Tumor Growth In Vivo” (Molecular Pharmaceutics, 2026) are described below.

“Also recorded” adds a separate entry of the source. Where a name gives a salt, the structure may show the parent alone. Residues, ends and D or L forms follow the SMILES beside them.

The test system of one data set is HB2 cells. It counts as cell-based, human. To be noted: 24 h. The procedure: (§1) MDA-MB-468, MDA-MB-231, BT-474, AU-565, HB2, and MCF-10A cells were procured from American Type Culture Collection (ATCC) and validated for lack of mycoplasma contamination (MycoAlert; Lonza, Basel, Switzerland) and identity (short tandem repeat profiling; Source Bioscience, Nottingham, UK). Cells (except MCF-10A) were cultured in Dulbecco’s modified Eagle medium (DMEM) supplemented with 10% (v/v) fetal calf serum (FCS) and 100 units/mL penicillin–streptomycin (Thermo Scientific; Waltham, MA, USA). MCF-10A was cultured in DMEM supplemented with 5% horse serum, 0.1 μg/mL cholera toxin, 0.5 μg/mL hydrocortisone, 0.02 μg/mL epidermal growth factor, and 100 units/mL penicillin–streptomycin (Thermo Scientific, Waltham, MA, USA). Cells were grown at 37 °C in a humidified incubator with 5% CO2. Cells were maintained and experiments were performed under conditions ensuring cell densities that supported exponential growth.
(§2) Cells were seeded in 96-well plates at 1 × 10^4 cells/well in complete growth media and incubated for 18 h. Cells were then treated with peptides (0–250 μM) for up to 24 h. Cells were then incubated with 0.5 mg/mL MTT dissolved in PBS for 3 h. Formazan crystals were dissolved using […] of isopropanol and absorbance was measured at 570 nm on a microplate spectrophotometer (Biotech Instruments, USA). For spheroids assays, MDA-MB-468 or HB2 cells (1000 cells/well) were seeded in 250 μL of DMEM supplemented with 10% FCS and 2.5% Matrigel (Corning, New York, USA) in low-adherent, round-bottom 96-well plates (Corning, New York, USA). The plates were centrifuged at 360g for 10 min and subsequently incubated for 48 h to allow spheroid formation. MDA-MB-468 or HB2 spheroids were then treated with peptides at the IC50 doses determined for MDA-MB-468 cells for 24 h. Cellular viability within spheroids was assessed by staining with Hoechst 33342 (5 μg/mL) for 30 min, followed by propidium iodide (PI) (1.5 μg/mL) for 10 min. Red fluorescence indicated nonviable cells stained with PI, whereas blue fluorescence represented both viable and nonviable cells stained with Hoechst 33342. The survival of spheroids was determined by calculating ratios of blue/red fluorescence using ImageJ software.
(§3) A panel of human breast epithelial cell lines was established, including two lines from a nontransformed origin (MCF-10A; HB2) and four cancer lines (BT-474; AU-565; MDA-MB-231; MDA-MB-468). Cells were treated with different doses of MP1 or the modified peptides. Survival was assessed relative to untreated using MTT assays (Figures and S2) and IC50 doses were determined for each peptide in each cell line.

The subject of data set [1] is MDA-MB-468 cells. The format is cell-based, human. To be noted: 24 h. The procedure: as §1, §2, §3
A further data set deals with red blood cells. Kind of data set: Ex vivo hemolysis assay. It counts as cell-based. To be noted: mouse RBCs 1:50 in PBS, 1 h, 37 °C, absorbance 540 nm. The procedure: Blood was collected from five 10-week-old male C57BL/6 mice via cardiac puncture following cervical dislocation, using pediatric blood collection tubes containing K3 EDTA (Greiner; Slušovice, Czechia). Blood was centrifuged (500g; 5 min; 4 °C) and plasma was removed. Red blood cells (RBCs) were resuspended to their original volume using 150 mM NaCl. RBCs were repeatedly washed and diluted to 1:50 in PBS. For a positive control, 1% (v/v) Triton X-100 was used (100% lysis), while cells incubated in PBS served as a negative control (0% lysis). 200 μL of RBCs in triplicate was treated with peptides and incubated on an orbital shaker (100 rpm; 1 h; 37 °C). Samples were centrifuged (500g; 5 min) and supernatants, containing lysed RBCs, were collected. Hemolysis was quantified by measuring absorbance at 540 nm.
Our next aim was to assess whether our various peptides had potential as anticancer therapeutics using an in vivo model. To our knowledge, MP1 or MP1-derived peptides have not previously been used experimentally in vivo, therefore we first performed an in vitro hemolysis assay to aid selection of peptides that could be suitable for intravenous delivery. Red blood cells were isolated from mouse blood and treated with three different doses of MP1 wildtype or our targeted peptides (EGFR and EGFR-MMP versions of both MP1 and D2K) and hemolysis was measured (Figure A).

For a further data set, the system named is AU-565 cells. The format is cell-based, human. To be noted: 24 h. The procedure: as §1, §2, §3
The subject of the next data set is BT-474 cells. It counts as cell-based, human. To be noted: 24 h. The procedure: as §1, §2, §3
The test system of a further data set is MCF-10A cells. The format is cell-based, human. To be noted: 24 h. The procedure:
as §1, §2, §3

Another data set concerns MDA-MB-231 cells. It counts as cell-based, human. To be noted: 24 h. As for the experimental part: as §1, §2, §3
For data set [2], the system named is MDA-MB-468 cells. Kind of data set: MTT survival with or without MMP-2 inhibitor, MDA-MB-468. It counts as cell-based, human. To be noted: MDA-MB-468, MTT, 24 h; 20 μM EGFR-MP1, 30 μM EGFR-MMP-MP1 or 2 μM chlorhexidine dihydrochloride alone. As for the experimental part:
Cells were seeded in 6-well plates at 3 × 10^5 in complete medium and allowed to grow for 48 h. 500 μL of cell media from each cell line was collected and centrifuged at 5000 rpm for 15 min at 4 °C. Supernatants were collected and 50 μL of each was added in 3 replicate wells of a monoclonal mouse antihuman MMP-2 antibody precoated 96-well ELISA plate (Human Total MMP-2 kit; BioLegend, USA). It was then mixed with the respective assay buffers as per the kit instruction. The plate was then sealed and incubated at room temperature (2 h). The supernatant sample was then discarded and the wells were washed with assay buffer several times. Next, 100 μL of Human Total MMP-2 Detection Antibody solution was added into the wells and incubated (1 h). 100 μL of Avidin-HRP solution was then added for 1 h, and finally, after washing, 100 μL of substrate solution was added. Absorbance was measured at 450 nm (Biotech Instruments, USA). The final MMP-2 concentration was calculated against a standard curve. […]
We were also interested to test formally whether the efficacy of EGFR-MMP-MP1 was dependent on MMP-2 activity. Therefore, we treated MDA-MB-468 cells with EGFR-MMP-MP1 or with EGFR-MP1, in the presence or absence of the MMP-2 inhibitor chlorhexidine dihydrochloride, and assessed cell survival relative to untreated (Figure C,D).

The IC50 is the concentration at which inhibition is half-maximal. The low end stands for greater potency, the high end for weaker potency. In the case of `CC[C@H](C)[C@H](N)C(=O)N[C@@H](CCCCN)C(=O)N[C@@H](Cc1c[nH]c2ccccc12)C(=O)N[C@@H](CCCCN)C(=O)N[C@@H](CCCCN)C(=O)N[C@@H](CC(C)C)C(=O)N[C@@H](CC(C)C)C(=O)N[C@@H](CC(=O)O)C(=O)N[C@@H](C)C(=O)N[C@@H](C)C(=O)N[C@@H](CCCCN)C(=O)N[C@@H](CCC(N)=O)C(=O)N[C@H](C(=O)N[C@@H](CC(C)C)C(=O)NCC(=O)N1CCC[C@H]1C(=O)N[C@@H](CC(C)C)C(=O)NCC(=O)N[C@H](C(=O)N[C@@H](C)C(=O)NCC(=O)N[C@@H](CCC(N)=O)C(=O)N[C@@H](Cc1ccc(O)cc1)C(=O)N[C@@H](Cc1c[nH]cn1)C(=O)N[C@@H](Cc1c[nH]c2ccccc12)C(=O)N[C@@H](Cc1ccc(O)cc1)C(=O)NCC(=O)N[C@@H](Cc1ccc(O)cc1)C(=O)N[C@H](C(=O)N1CCC[C@H]1C(=O)N[C@@H](CCC(=O)O)C(=O)N[C@@H](CC(N)=O)C(=O)N[C@H](C(=O)N[C@H](C(=O)O)[C@@H](C)CC)C(C)C)[C@@H](C)O)[C@@H](C)CC)[C@@H](C)CC` [EGFR-MMP-D2K] (H-IKWKKLLDAAKQILGPLGIAGQYHWYGYTPENVI-OH), the IC50 in the data set on HB2 cells amounted to 79.8 µM; with MDA-MB-468 cells [1] it was 32.1 µM. The compound also displayed a hemolysis in the data set on red blood cells (50 μM peptide, 1% Triton X-100 = 100%) of 5.9%.
With `CC[C@H](C)[C@H](N)C(=O)N[C@@H](CC(=O)O)C(=O)N[C@@H](Cc1c[nH]c2ccccc12)C(=O)N[C@@H](CCCCN)C(=O)N[C@@H](CCCCN)C(=O)N[C@@H](CC(C)C)C(=O)N[C@@H](CC(C)C)C(=O)N[C@@H](CC(=O)O)C(=O)N[C@@H](C)C(=O)N[C@@H](C)C(=O)N[C@@H](CCCCN)C(=O)N[C@@H](CCC(N)=O)C(=O)N[C@H](C(=O)N[C@@H](CC(C)C)C(=O)O)[C@@H](C)CC` [MP1, reference compound] (H-IDWKKLLDAAKQIL-OH), the IC50 worked out at 18.7 µM in the data set with AU-565 cells; 50.6 µM in the data set with BT-474 cells; 31.5 µM with HB2 cells; 111 µM in the data set with MCF-10A cells; 35 µM in the data set with MDA-MB-231 cells; 23.4 µM with MDA-MB-468 cells [1]. Further, the “hemolysis (in words)” value in the data set on red blood cells (three doses) is given as “unacceptably high levels of hemolysis at all doses; also recorded: unacceptably high hemolytic activity”.
In the case of `CC[C@H](C)[C@H](N)C(=O)N[C@@H](CCCCN)C(=O)N[C@@H](Cc1c[nH]c2ccccc12)C(=O)N[C@@H](CCCCN)C(=O)N[C@@H](CCCCN)C(=O)N[C@@H](CC(C)C)C(=O)N[C@@H](CC(C)C)C(=O)N[C@@H](CC(=O)O)C(=O)N[C@@H](C)C(=O)N[C@@H](C)C(=O)N[C@@H](CCCCN)C(=O)N[C@@H](CCC(N)=O)C(=O)N[C@H](C(=O)N[C@@H](CC(C)C)C(=O)NCC(=O)NCC(=O)N[C@@H](Cc1ccc(O)cc1)C(=O)N[C@@H](Cc1c[nH]cn1)C(=O)N[C@@H](Cc1c[nH]c2ccccc12)C(=O)N[C@@H](Cc1ccc(O)cc1)C(=O)NCC(=O)N[C@@H](Cc1ccc(O)cc1)C(=O)N[C@H](C(=O)N1CCC[C@H]1C(=O)N[C@@H](CCC(=O)O)C(=O)N[C@@H](CC(N)=O)C(=O)N[C@H](C(=O)N[C@H](C(=O)O)[C@@H](C)CC)C(C)C)[C@@H](C)O)[C@@H](C)CC` [EGFR-D2K] (H-IKWKKLLDAAKQILGGYHWYGYTPENVI-OH), the IC50 in the data set on HB2 cells is 50.5 µM; in the data set with MDA-MB-468 cells [1] it was 27.2 µM.
For the compound `CC[C@H](C)[C@H](N)C(=O)N[C@@H](CC(=O)O)C(=O)N[C@@H](Cc1c[nH]c2ccccc12)C(=O)N[C@@H](CCCCN)C(=O)N[C@@H](CCCCN)C(=O)N[C@@H](CC(C)C)C(=O)N[C@@H](CC(C)C)C(=O)N[C@@H](CC(=O)O)C(=O)N[C@@H](C)C(=O)N[C@@H](C)C(=O)N[C@@H](CCCCN)C(=O)N[C@@H](CCC(N)=O)C(=O)N[C@H](C(=O)N[C@@H](CC(C)C)C(=O)NCC(=O)NCC(=O)N[C@@H](Cc1ccc(O)cc1)C(=O)N[C@@H](Cc1c[nH]cn1)C(=O)N[C@@H](Cc1c[nH]c2ccccc12)C(=O)N[C@@H](Cc1ccc(O)cc1)C(=O)NCC(=O)N[C@@H](Cc1ccc(O)cc1)C(=O)N[C@H](C(=O)N1CCC[C@H]1C(=O)N[C@@H](CCC(=O)O)C(=O)N[C@@H](CC(N)=O)C(=O)N[C@H](C(=O)N[C@H](C(=O)O)[C@@H](C)CC)C(C)C)[C@@H](C)O)[C@@H](C)CC` [EGFR-MP1] (H-IDWKKLLDAAKQILGGYHWYGYTPENVI-OH), the IC50 in the data set on AU-565 cells stood at 91.4 µM; with BT-474 cells, 98.3 µM; with HB2 cells it was 71.4 µM; in the data set on MCF-10A cells it was 93.4 µM; with MDA-MB-231 cells it was 39.3 µM; in the data set on MDA-MB-468 cells [1], 39.6 µM.
With `[H]/N=C(\N/C(=N/[H])NCCCCCCNC(=N)NC(=N)Nc1ccc(Cl)cc1)Nc1ccc(Cl)cc1` [chlorhexidine dihydrochloride], the “cell survival relative to untreated, single agent” value with MDA-MB-468 cells [2] is “small and nonsignificant decrease”.
